Where “and” joins values, the source holds several entries; their conditions need not be identical. Identical values can stand only once. Like-named read-outs stand apart in the source and are kept apart here. Each block holds one molecule with its values, some of them ahead of it.
Assays:
[1] = Isothermal titration calorimetry of biotin binding; conditions: for ΔCp: Table 1a, CP51/46 in PB; for ΔCp observed: change in heat capacity of biotin association, linear fit of ΔH° versus temperature
Protocol: Isothermal titration calorimetry (ITC) experiments on wild-type streptavidin were performed on a MicroCal Omega instrument. ITC experiments on CP51/46 were done using a Calorimetry Science Corporation 4200 Calorimeter (Provo, Utah). CP51/46 solutions of 30-40 μM concentration were titrated by the addition of 20×5μL aliquots of 750 μM biotin dissolved in the same buffer as the protein. All ITC experiments were done in either phosphate (50 mM sodium phosphate, 100 mM NaCl, pH 7.75) or Tris (50 mM Tris HCl, 100 mM NaCl, pH 7.75) buffers. Biotin concentrations were determined gravimetrically. Data were analyzed using the proprietary software supplied by Calorimetry Science Corporation with the instrument. Heats of dilution for each injection were subtracted from the reaction heats before data analysis. Nonlinear fitting of the data allowed the number of binding sites (n), association constant (Ka), and binding enthalpy (ΔH°) to be determined assuming noncooperative binding and one site per subunit.

[2] = wild-type, cited from earlier work; for Ka: biotin association, estimated (Green 1990); for ΔH°: 25° C. (Chilkoti 1995)
[3] = Tris buffer, per mol of subunits
[4] = phosphate buffer (PB), 25° C., per mol of subunits

ΔCp ([1]; per mol of subunits): -345 ± 12 cal/mol·°C
ΔCp observed [1]: −345 cal/mol° C.
TΔS° ([1]; wild-type, 25° C., from estimated Ka and Gibb's free energy): -6.6 ± 0.4 kcal/mol
TΔS° ([1]; wild-type, 25° C., from estimated Ka and Gibb's free energy, listed as wild-type streptavidin): -6.6 kcal/mol
ΔG° ([1]; wild-type, from estimated Ka, per mol of subunits): -18 kcal/mol
Molecule: wild-type: Wild-type core streptavidin (SEQ ID NO:1), comparator for biotin binding [reference compound]
Ka [2]: 2.5e+13 M⁻¹
Ka ([2]; listed as Wild-type streptavidin): ~2.5e+13 M⁻¹
Ka ([2]; listed as streptavidin): approximately 2.5×10^13 M^−1
ΔH° [2]: -24.9 ± 0.4 kcal/mol
ΔH° ([2]; listed as wild type streptavidin): -24.9 kcal/mol

ΔCp ([1]; per mol of subunits): -95 ± 29 cal/mol·°C
TΔS° [1, 3]: -3.3 ± 0.7 kcal/mol
ΔG° [1, 3]: -10.1 kcal/mol
ΔH° [1, 3]: -13.4 ± 0.7 kcal/mol
Ka ([1]; biotin association, Tris buffer pH 7.75, per mol of subunits): (2.47 ± 1.87) × 10^7 M^−1
ΔCp observed [1]: −95 cal/mol° C.
ΔG° [1, 4]: -10.0 kcal/mol
B1: CP51/46: Circularly permuted core streptavidin; termini 13 and 139 joined by GGGS linker, loop residues 47-50 removed, new termini Glu51 and Ala46 (SEQ ID NO:4) (protein)
chain: MESRYVLTGRYDSAPATDGSGTALGWTVAWKNNYRNAHSATTWSGQYVGGAEARINTQWLLTSGTTEANAWKSTLVEHDTFTKVKPSAASGGGSAEAGITGTWYNQLGSTFIVTAGADGALTGTYESA
TΔS° [1, 4]: −3.8 (±0.8) kcal/mol and −3.8 ± 0.8 kcal/mol
ΔH° [1, 4]: −13.8 (±0.8) kcal/mol and −13.8 ± 0.8 kcal/mol

Source: US6492492B1, “Circularly permuted biotin binding proteins” (University of Washington, priority 1998, dated 2002)
